From PMC1716192, “A Plant-Derived Morphinan as a Novel Lead Compound Active against Malaria Liver Stages” (PLoS Medicine, 2006)
Entries after “also recorded” stand apart in the source; their conditions may differ.

Tests used:
[1] = tested on: P. yoelii transmissibility (oocysts, sporozoites in A. stephensi); test: Transmissibility to A. stephensi mosquitoes fed on treated mice; assay type: in vivo; settings: 200 mg/kg, A. stephensi fed on treated mice (unpublished data)
Protocol: In order to test for inhibitory activity against P. yoelii blood stages, four groups of five naive mice were inoculated (intraperitoneally) with 10^6 P. yoelii–infected red blood cells on day 0. Three hours later, one group was treated with tazopsine at 100 mg/kg, another with NCP-tazopsine at 200 mg/kg, whereas the other two groups acted as controls (respectively, water and 10% Tween 80). The doses were repeated daily until day +3. For the group treated with NCP- tazopsine and its control group, the animals were anesthetised 2 h following the administration of the last dose (day +3), and placed for 30 min over a cage with 100 female laboratory-bred A. stephensi. Oocysts were enumerated in 30 mosquito midguts dissected 8 d later, and the number of sporozoites in the salivary glands dissected from 30 insects was ascertained a further 7 d later. All the experiments were performed in two independent duplicates, and enumeration of parasites in blood smears and mosquitoes was conducted in a blinded fashion.

[2] = tested on: primary human hepatocytes; test: In vitro assay for cell viability (neutral red), human hepatocytes; assay type: cell-based; settings: 5 d drug exposure
Protocol: Primary hepatocytes of mice or humans were prepared as above and seeded in 96-well plates coated with collagen, at a density of 5 × 10^4 and 7 × 10^4 cells per well, respectively. Drugs were added to the culture medium, which was changed daily after 24 h or 48 h of incubation for mouse and human hepatocytes, respectively. After 48 h of drug exposure (mouse hepatocytes) or 5 d (human hepatocytes), 50 μl of neutral red (Sigma) at 0.02% in phosphate-buffered saline (PBS) were added per well and incubated for 24 additional hours. Cultures were then washed with PBS and the neutral red extracted with 1% SDS from viable cells and quantified by measuring the OD540 on a microplate autoreader photometer (BioTek Instruments, Winooski, Vermont, United States).
(§1) IC50 and TC50 were calculated by nonlinear regression using four-parameter logistic curves on the SigmaPlot 10.0 software (http://www.systat.com). Each IC50 or TC50 is expressed as a mean between two independent experiments, followed by the standard error of the mean.

[3] = tested on: P. yoelii (265 BY strain) hepatic stages; test: In vitro assay for P. yoelii liver stage inhibition in primary mouse hepatocytes; assay type: cell-based; settings: for IC50 / IC90: 48 h
Protocol: P. yoelii (265 BY strain) and P. falciparum (NF 54 strain) sporozoites were obtained by dissection of infected Anopheles stephensi salivary glands. Primary mouse hepatocytes were isolated as previously described and seeded in eight-well Lab-Tek plastic chamber slides (VWR, Fontenay-sous-Bois, France) previously coated with rat-tail collagen I (BD Biosciences, Le Pont de Claix, France) at a density of 10^5 cells per well. Mouse hepatocytes were cultured at 37 °C in 5% CO2 in William's E medium supplemented with 10% fetal calf serum, 1% L-glutamine, 1% sodium pyruvate, 1% insulin-transferrin-selenium, 1% nonessential amino acids, and 1% penicillin-streptomycin (all from Invitrogen, Cergy-Pontoise, France), for 24 h before inoculation of P. yoelii sporozoites (10^5 per well). Human liver fragments were collected following informed consent provided from patients undergoing a partial hepatectomy. The collection and use of these tissues were undertaken in accordance with French Government ethical regulations. Primary human hepatocytes were isolated from the healthy parts of these liver biopsies as previously described. Human hepatocytes were seeded in LabTek plastic chamber slides coated with collagen, at a density of 1.8 × 10^5 cells per well and cultured at 37 °C in 5% CO2 in the same medium as above, supplemented with 10^−7 M dexamethasone (Sigma) and 2% DMSO after complete cell adherence (12–24 h), for at least 48 h before inoculation of P. falciparum sporozoites (10^5 per well). For a standard assay, the plant extract, the purified compound, or primaquine was solubilized in DMSO, further diluted in culture medium (equal DMSO concentrations of <0.3% per well), and then added to hepatocyte cultures at the time of sporozoite inoculation. Three hours later, after sporozoite penetration into hepatocytes, cultures were washed and further incubated in the presence of the drug. Culture medium containing the appropriate drug concentration was changed daily until 48 h for P. yoelii, or until 5 d for P. falciparum. Parasites were quantified on the last day of incubation. For the in vitro timing experiments, tazopsine treatment of P. yoelii and P. falciparum cultures was undertaken for different periods during the cultivation: 0 h to 3 h, 3 h to 24 h, or 24 h to 48 h after P. yoelii sporozoite inoculation (quantification at 48 h), or 0 h to 2 d, or 3 d to 5 d after P. falciparum sporozoite inoculation (quantification at 5 d). […] Cells were stained with Evans Blue (0.4%), and parasites and cells nuclei were stained with 1 μg/ml of diamidino-phenylindole (DAPI; Sigma). Parasite numbers were counted under a fluorescence microscope with a 25× light microscope objective.
as §1

[4] = tested on: P. yoelii (265 BY strain) sporozoites; test: In vivo assay: P. yoelii sporozoite challenge in mice; parameters: species or system Swiss mice
Protocol: All animal were kept and used in accordance with institutional guidelines and European regulations. Female 6-wk-old Swiss mice (René Janvier, Le Genest-Saint-Isle, France) weighing 24–31 g were randomly allotted to five groups. The drug to be tested was administered orally. Tazopsine was diluted in sterile water and NCP-tazopsine in sterile water with 10% of Tween 80 (Aldrich, Le Chesnay, France). The drugs were administrated on days −1, 0, +1, +2 (+40 h), and the mice challenged on day 0 by retro-orbital injection of P. yoelii (265 BY strain) sporozoites. Group 1 received 100 mg/kg/day of tazopsine (n = 5), and group 2 received sterile water at the same times (controls, n = 5); groups 1 and 2 were challenged with 4,000 sporozoites. Group 3 received 100 mg/kg/d of NCP-tazopsine (n = 5), group 4 received 200 mg/kg/d of NCP-tazopsine (n = 8), and group 5 received 10% Tween in sterile water (controls, n = 5); groups 3, 4, and 5 were challenged with 10,000 sporozoites. Parasites were enumerated by blinded microscopic examination of Giemsa-stained tail-blood smears collected from day 2 to day 23 postinoculation. A mouse was considered negative when no parasites could be observed in 20,000 red blood cells (50 fields under a 50× light microscope objective) on any day during the period of observation. The results presented were derived from two independent duplicate experiments.

[5] = 100 mg/kg daily for 4 d oral, challenge with 4,000 P. yoelii sporozoites

Row | SMILES | effect on the transmissibility of the parasite [1] | toxicity to mice (Oral toxicity in mice; up to doses of 400 mg/kg for 4 d) | TC50 [2] | IC50 ([3]; Plasmodium yoelii, Hepatocyte) [µM] | IC90 ([3]; Plasmodium yoelii, Hepatocyte) [µM] | extension of prepatent period over controls (nonprotected mice) ([4]; 100 mg/kg for 4 d oral, 10,000 sporozoites) [days] | mice protected from infection ([4]; 100 mg/kg for 4 d oral, challenge with 10,000 P. yoelii sporozoites) [%] | mice developing a blood stage infection / protection after sporozoite challenge ([4]; 200 mg/kg daily over 4 d oral, challenge with 10,000 P. yoelii sporozoites) | oral dose above which toxic to mice (Oral toxicity in mice; given daily over 4 d) | phase of hepatic development most susceptible to inhibition ([3]; P. yoelii, exposure 0-3 h, 3-24 h or 24-48 h) | IC80 ([3]; Plasmodium yoelii, Hepatocyte) [µM] | concentration giving total inhibition ([3]; cultured P. yoelii hepatic stages) [µM] | Sporozoite invasion and differentiation into early hepatic stages ([3]; exposure 0-3 h postinfection, suboptimal inhibitory concentrations) | extension of prepatent period over controls (nonprotected mice) ([4]; 100 mg/kg daily for 4 d oral, 4,000 sporozoites) | mice protected from infection [4, 5] [%] | mice that developed a blood stage parasitemia [4, 5] [%]
1 | COC1=C2[C@@H]3[C@H](O)c4ccc(OC)c(O)c4[C@]2(CCN3C2CCCC2)C[C@H](O)[C@@H]1O [NCP-tazopsine, N-cyclopentyl-tazopsine] | no effect | not found to be toxic | 2,549.6 ± 307.6 μM | 3.3 ± 0.05 | 5.2 ± 1.4 | 2 | 60 | completely protected; also recorded: none of the mice developed a blood stage infection; also recorded: fully protected |  |  |  |  |  |  |  | 
2 | COC1=C2[C@H]3NCC[C@]2(C[C@H](O)[C@@H]1O)c1c(ccc(OC)c1O)[C@H]3O [Tazopsine, tazopsine] |  |  | 28.4 ± 4.3 µM | 3.1 ± 0.1 | 6.3 ± 0.8 |  |  |  | exceeding 100 mg/kg | most pronounced during the early developmental stages of the hepatic parasite (3 to 24 h) | 5 | ≥ 7.1 | not affected | about 4 d | 70 | 30
